Measurements published in ChEMBL document CHEMBL3886309, “Spiro compounds useful as inhibitors of stearoyl-coenzyme A delta-9 desaturase” (2015).

Target: T1, Stearoyl-CoA desaturase (Homo sapiens, UniProt O00767)
T1 sequence (O00767 whole entry): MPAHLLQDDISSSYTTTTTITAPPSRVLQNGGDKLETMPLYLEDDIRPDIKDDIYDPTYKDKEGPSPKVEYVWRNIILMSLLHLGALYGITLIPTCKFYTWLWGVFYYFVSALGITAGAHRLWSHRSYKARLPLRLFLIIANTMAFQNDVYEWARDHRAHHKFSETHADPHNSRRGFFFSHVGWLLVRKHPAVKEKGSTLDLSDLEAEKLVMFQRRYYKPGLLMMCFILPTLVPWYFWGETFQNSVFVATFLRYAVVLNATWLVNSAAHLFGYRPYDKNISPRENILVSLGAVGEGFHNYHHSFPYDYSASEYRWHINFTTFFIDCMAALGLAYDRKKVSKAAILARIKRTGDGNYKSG
Test: Enzyme Activity Assay: The potency of compounds of formula I against the stearoyl-CoA desaturase was determined by measuring the conversion of radiolabeled stearoyl-CoA to oleoyl-CoA using rat liver microsome or human SCD1 following previously published procedures with some modifications (Joshi, et al., J. Lipid Res., 18: 32-36 (1977); Talamo, et al., Anal. Biochem, 29: 300-304 (1969)). Liver microsome was prepared from male Wistar or Sprague Dawley rats on a high carbohydrate diet for 3 days (LabDiet #5803, Purina). The livers were homogenized (1:10 w/v) in a buffer containing 250 mM sucrose, 1 mM EDTA, 5 mM DTT and 50 mM Tris-HCl (pH 7.5). After a 100,000xg centrifugation for 60 min, the liver microsome pellet was suspended in a buffer containing 100 mM sodium phosphate, 20% glycerol, 2 mM DTT, and stored at -78° C. Human SCD1 desaturase system was reconstituted using human SCD1 from a baculovirus/Sf9 expression system, cytochrome B5 and cytochrome B5 reductase.
Format: microsomes

Row | IC50 [nM] | SMILES
1 | 12 | O=C(O)Cn1nnc(-c2cnc(N3CCC4(CC3)CC(=O)c3c(Cl)cccc3O4)s2)n1
2 | 24 | O=C(O)Cn1nnc(-c2nnc(N3CCC4(CC3)CC(=O)c3c(Cl)cccc3O4)s2)n1
3 | 17 | O=C(O)Cn1nnc(-c2cc(N3CCC4(CC3)CC(=O)c3c(Cl)cccc3O4)no2)n1
